Structures are written as SMILES. Converted amounts (≈) assume the structure as drawn.

Data set [1] deals with hDDR1 (Homo sapiens, UniProt Q08345). The data set can be described thus: KinaseProfiler radiometric biochemical kinase assay (Eurofins). Set-up: purchased Eurofins 14-942KP10. The protocol:
The experimental procedures were performed by Eurofins. The activity of the molecules against hDDR1 and hDDR2 kinases was assessed using KinaseProfiler^67. […] The enzymatic reaction processed in the presence of Mg^2+ cations and ATP at room temperature for 40 minutes and terminated by addition of phosphoric acid. […] All the compounds were prepared in 100% DMSO. […] The biological evaluation of selectivity against non-target kinases was performed in Dundee Eurofins, using Scan Max Delta Panel [10 μM ATP] KinaseProfiler^68.

Data set [2] in a line: Thermodynamic solubility. The format is physicochemical. As for the experimental part: (§1) Since Compound 2 contains an imidazolidine fragment typically unusual in drug discovery we experimentally assessed key properties for this molecule. […] The inhibition activity of Compounds 1 and 2 towards a small panel of key cytochrome P450 (CYP450) isoforms was also assessed in vitro (Table 2).

Data set [3] in a line: log D 7.4. The format is physicochemical. The note with it: TFA salt. As for the experimental part:
as §1

Data set [4] is described as follows: Microsomal stability (MLM). As for the experimental part:
(§2) Cold acetonitrile (ACN) including 100 ng/mL Tolbutamide and 100 ng/mL Labetalol as internal standard (IS) were used for stop solution. 10 μL compound or control working solution/well was added to all plates (T0, T5, T10, T20, T30, T60, NCF60) except matrix blank. Dispense 80 μL/well microsome solution was added to every plate by Apricot, the mixture of microsome solution and compound were incubated at 37° C. for about 10 min. After pre-warming, dispense 10 μL/well NADPH regenerating system was added to every plate by Apricot to start reaction. The solution was then incubated at 37° C. 300 (μL/well) stop solution (cold in 4° C.) was added to terminate the reaction. The sampling plates were shaken for approximately 10 min. Samples were centrifuged at 4000 rpm for 20 min under 4° C. While centrifuging, 8×new 96-well plate were loaded with 300 μL HPLC water, then 100 μL supernatant was transferred and mixed for LC/MS/MS.

Data set [5] is described as follows: Microsomal stability (DLM). To be noted: for Remaining (*NCF = 60 min) / Remaining (T = 60 min): 1 h. The protocol:
as §2

A short description of data set [6]: Kinetic solubility. The format is physicochemical. The note with it: pH=7.4. The protocol:
as §1

Data set [7] in a line: pKa. The format is physicochemical. As for the experimental part:
as §1

For data set [8], the target named is T1, Human DDR1b (Homo sapiens, UniProt Q08345).
T1 construct: expressed in transfected cells
The data set can be described thus: DDR1 autophosphorylation in collagen-stimulated U2OS cells (Western blot). The format is cell-based. The note with it: normalized to HA and GAPDH. The protocol:
The amount of activated DRR1 (Y543) was measured using Western blot analysis, the obtained data were normalized to HA and GAPDH protein levels.
Human DDR1b gene with HA-tag was cloned into pCMV Tet-On vector (Clontech) and stable inducible cell lines established in U2OS were used for the IC50 test. […] The cells were detached with trypsinization and transferred to a 15-ml tube.
For orientation: In western blotting, separated proteins are transferred to a membrane and probed.

Data set [9] in a line: Mouse PK study, PO administration. The format is in vivo.
Data set [10] can be described thus: Mouse PK study, IV administration. The format is in vivo. To be noted: IV 10 mg/kg, M01-M03 individual.
Data set [11] deals with T2, eEF-2K (Homo sapiens, UniProt O00418).
T2 construct: purchased Eurofins 50-100KP10
The data set can be described thus: scanMAX Delta Kinase Panel (Eurofins), single concentration. To be noted: 10 μM; highest inhibition within the panel. The format is biochemical. As for the experimental part: The issue of selectivity is of vital importance for a lead compound to estimate possible off-target effects that can influence the pre-clinical evaluation success. […] DDR1 kinase is mostly expressed in epithelial cells, whereas the expression of DDR2 is generally observed in […]. Even though that the prevention of fibrosis is the primary goal, the selectivity over DDR2 kinase is also a very important consideration.
The experimental procedures were performed by Eurofins. The activity of the molecules against hDDR1 and hDDR2 kinases was assessed using KinaseProfiler^67. The enzyme sample was incubated with 8 mM MOPS buffer (pH=7.0), 0.2 mM EDTA, […] target protein hDDR1 and hDDR2 kinases, 10 mM Magnesium acetate/Manganese chloride, respectively, and [γ-^33P]-ATP. The enzymatic reaction processed in the presence of Mg^2+ cations and ATP at room temperature for 40 minutes and terminated by addition of phosphoric acid. The reaction mixture (10 μL) was spotted onto a P30 filtermat and washed four times using 0.425% phosphoric acid and once with methanol. All the compounds were prepared in 100% DMSO. […] The biological evaluation of selectivity against non-target kinases was performed in Dundee Eurofins, using Scan Max Delta Panel [10 μM ATP] KinaseProfiler^68.

The mark [12] stands for this setting: PO 15 mg/kg, M04-M06 individual, c4 Mean ± SD, 15 mg/kg, mean.

Chain of hDDR1 (Q08345 19-913): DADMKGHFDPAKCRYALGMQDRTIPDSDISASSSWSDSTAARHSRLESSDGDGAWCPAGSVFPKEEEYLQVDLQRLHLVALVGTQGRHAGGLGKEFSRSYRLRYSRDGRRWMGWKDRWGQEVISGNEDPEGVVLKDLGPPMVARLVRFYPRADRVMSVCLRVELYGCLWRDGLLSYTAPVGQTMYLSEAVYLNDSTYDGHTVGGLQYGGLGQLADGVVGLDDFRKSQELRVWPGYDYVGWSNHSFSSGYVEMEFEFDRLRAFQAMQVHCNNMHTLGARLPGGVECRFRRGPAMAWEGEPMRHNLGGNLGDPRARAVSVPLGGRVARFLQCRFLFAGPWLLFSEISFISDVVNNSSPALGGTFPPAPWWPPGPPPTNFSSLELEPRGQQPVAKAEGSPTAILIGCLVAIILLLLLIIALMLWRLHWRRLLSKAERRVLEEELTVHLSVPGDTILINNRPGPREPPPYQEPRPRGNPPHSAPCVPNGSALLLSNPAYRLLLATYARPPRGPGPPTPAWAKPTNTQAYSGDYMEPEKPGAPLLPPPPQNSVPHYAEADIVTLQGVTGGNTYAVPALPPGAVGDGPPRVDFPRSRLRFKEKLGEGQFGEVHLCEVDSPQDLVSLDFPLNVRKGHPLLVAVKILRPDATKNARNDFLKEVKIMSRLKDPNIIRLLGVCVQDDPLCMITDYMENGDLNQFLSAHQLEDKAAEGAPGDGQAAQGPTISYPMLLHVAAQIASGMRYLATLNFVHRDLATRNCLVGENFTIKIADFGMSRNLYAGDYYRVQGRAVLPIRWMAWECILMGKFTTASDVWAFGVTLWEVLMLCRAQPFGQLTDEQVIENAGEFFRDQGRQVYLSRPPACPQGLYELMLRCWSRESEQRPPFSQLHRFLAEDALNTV
T1 sequence (Q08345 19-913): as above

On to `O=C(Nc1cccc(C(=O)N2CCN(c3ccnc4[nH]ccc34)C2)c1)c1cccc(C(F)(F)F)c1` [Compound 2], for which, in data set [1], the “activity against DDR1 kinase (in words)” value was “low nanomolar range”. In addition, the “LE** = 1.4*(pIC50)/N” value in data set [1] (N number of heavy atoms) worked out at 0.31. Besides, the IC50 (usually the concentration that inhibits the measured activity by half) stood at 21 nM in [1] (read-out: IC50, inhibition of DDR1 activity) and 5.8 nM in data set [8]. The same compound had a thermodynamic solubility in [2] of less than 0.59 µg/mL. The “log D 7.4” value in data set [3] turned out to be 4.07. The “CLint(mic)” value in [4] (MLM 0.5) was 91.8; in data set [5] (DLM 0.5) it was 162.6; in data set [5] (HLM 0.5) it was 108.2; in data set [5] (rat, microsomes) it was 80.6. Further, the T1/2 in data set [4] (mouse, microsomes) came out at 0.252 h; in data set [5] (dog, microsomes), 0.142 h; in data set [5] (human, microsomes), 0.213 h; in [5] (rat, microsomes), 0.287 h. In addition, the “Remaining (*NCF = 60 min)” value in data set [4] (mouse, microsomes, 1 h) is given as 86.0%; in data set [5] (dog, microsomes), 99.9%; in data set [5] (human, microsomes) it was 88.7%; in data set [5] (rat, microsomes), 88.3%. Also, the “Remaining (T = 60 min)” value was determined as 5.3% in [4] (mouse, microsomes, 1 h); 0.6% in data set [5] (dog, microsomes); 2.8% in data set [5] (human, microsomes); 7.1% in data set [5] (rat, microsomes). The same compound displayed a kinetic solubility in [6] of 1.09 µg/mL (≈ 2.27 µM). Besides, the pKa (in general, the pH at which an ionisable group is half protonated) in data set [7] worked out at 6.99.

For `Cc1ccc2c(Nc3cccc(C(F)(F)F)c3)noc2c1C#Cc1cnc2cccnn12` [Compound 1], the Bioavailability in data set [9] (PO 15 mg/kg vs IV 10 mg/kg, calculated using AUC0-inf) is reported as 17.8 ± — %. In addition, in [9] (setting [12]), the AUC0-inf stood at 1911 ± 94.3 ng·h/mL, the AUC0-last came out at 1896 ± 93.7 ng·h/mL, the AUCExtra turned out to be 0.787 ± 0.278% and the AUMCExtra worked out at 4.01 ± 1.60%. In [9] (setting [12]), the Cmax (in general, the maximum level reached in the sampled fluid or tissue) was determined as 276 ± 75.4 ng/mL; the MRT0-inf is listed as 5.73 ± 0.999 h; the MRT0-last turned out to be 5.54 ± 1.000 h; the T1/2 turned out to be 3.29 ± 0.278 h. In data set [9] (setting [12]), the time to peak (Tmax) (as a rule, the time from dosing to the highest level) worked out at 2.33 ± 1.53 h. The Tlast in [9] (PO 15 mg/kg, M04-M06 individual, c4 Mean, 15 mg/kg, mean) is 24.0 ± — h. The Tlast in [10] (c4 Mean) is 24.0 ± — h. Besides, in data set [10] (c4 Mean ± SD), the AUC0-inf turned out to be 6888 ± 359 ng·h/mL, the AUC0-last turned out to be 6830 ± 349 ng·h/mL, the AUCExtra was found to be 0.845 ± 0.104% and the AUMCExtra is recorded as 5.42 ± 0.663%. In data set [10] (c4 Mean ± SD), this compound gave a C0 of 2598 ± 572 ng/mL, a Cl of 19.1 ± 0.970 mL/min/kg, an MRT0-inf of 4.56 ± 0.193 h and an MRT0-last of 4.35 ± 0.187 h. Further, in data set [10] (c4 Mean ± SD), the T1/2 amounted to 3.65 ± 0.123 h and the Vdss (as a rule, the apparent volume that relates the amount in the body to the concentration in plasma or blood) is 5.21 ± 0.349 L/kg. The compound also registered an INH % in [11] of 37%.

The values above are taken from patent publication US12293809B2, “Workflow for generating compounds with biological activity against a specific biological target” (INSILICO MEDICINE IP LIMITED, priority 2019, dated 2025).
